Patent US11058654B2, “Compositions and methods for the treatment of hemoglobinopathies and thalassemias” (AXCELLA HEALTH INC., priority 2018, dated 2021)

Legend:
Type in all cases: cell-based, human
[1] = test system: whole blood of healthy control donors; assay: Reactive oxygen species (DCF fluorescence, H2O2) in whole blood of healthy controls; conditions: healthy control donors; treated with H2O2; dose-responsive
Description: (§1) Whole blood samples were appropriately diluted in Ca^2+- and Mg^2+-free Dulbecco's phosphate buffered saline (DPBS, Life Technologies) and the concentration of erythrocytes (RBC/ml) was measured on a Cellometer K2 Fluorescent Viability Cell Counter according to the manufacturer's RBC/AOPI protocol (Nexcelom Biosciences).
(§2) Cells were then diluted to 1*10^6 RBC/ml into either prewarmed 37° C. […] 2′-7′-dichlorofluorescin diacetate (DCF, Millipore Sigma), 20 mM in dimethyl sulfoxide (DMSO, Fisher) were added to a working concentration of 100 μM. Cells were incubated with dye for 15 minutes at 37° C., 5% CO2 in a tissue culture incubator, washed once, and resuspended in the 0.9 volumes of the same prewarmed 37° C. buffer with 5 minute spins at 500× g, accel/decal=5 in a swing arm centrifuge (Beckman Coulter). […] Where possible due to solubility constrains, pH-7.4-adjusted stock solutions of amino acids were used. Wells were mixed by pipetting and plates incubated at 37° C., 5% CO2 in a tissue culture incubator for 30 minutes. Optionally, 40 mM H2O2(Millipore Sigma) freshly prepared in the same buffer was added to bring the concentration to 2 mM, wells mixed by pipetting, and plates were incubated an additional 30, 60, 120, or 240 minutes before fluorescence measurement of ROS signal on a Synergy H4 (BioTek) microplate reader with excitation=488 nm and emission=530 nm, and gain either set to autogain, 75, or 100.

[2] = test system: sickle cell disease patient blood; assay: Reactive oxygen species (DCF fluorescence, H2O2) in sickle cell disease patient blood; conditions: treated with H2O2 and untreated in DPBS
Description: as §1, §2

[3] = test system: ICAM-1; assay: ICAM-1 cell integrated intensity in HLMVEC treated with TNFa; conditions: 0.5 ng/mL TNFα; amino acids at 20×; 24 hours; in words
From the text: (§3) A VEC model was employed to assess the ability of amino acids to influence aspects of vascular dysfunction in SCD. TNFa treatment of healthy donor HLMVEC mimics the SCD disease state and induces expression of adhesion markers ICAM-1 and VCAM-1, and secretion of proinflammatory cytokine IL-6. It is established that levels of ICAM-1, VCAM-1, and IL-6 can contribute to SCD pathology and correlate with the incidence and severity of complications in SCD patients. The VEC model sought to test the ability of amino acids to reduce the TNFa-induced disease phenotype by lowering expression of adhesion markers (ICAM-1 and VCAM-1) and inflammatory cytokines (IL-6) while promoting VEC health and viability.
Primary Human Lung Microvascular Endothelial Cells (HLMVEC; Lonza) were seeded at 6,000 cells per well in Endothelial Cell Growth Basal Medium-2 (Lonza) supplemented with Fetal Bovine Serum (FBS; Lonza), human EGF (Lonza), human VEGF (Lonza), R3-Insulin-like Growth Factor-1 (Lonza), ascorbic acid (Lonza), hydrocortisone (Lonza), human FGF-beta (Lonza), and gentamicin/amphotericin-b (Lonza) in a 96-well plate (Thermo Fisher). […]
(§4) Antibody binding was detected by fluorescence microscopy using a high content imager (Molecular Devices). Images were analyzed using MetaXpress 6 software to determine the integrated intensity per cell for each wavelength corresponding to ICAM-1 or VCAM-1.

[4] = test system: VCAM-1; assay: VCAM-1 cell integrated intensity in HLMVEC treated with TNFa; conditions: 0.5 ng/mL TNFα; amino acids at 20×; 24 hours; in words
From the text: as §3
Primary Human Lung Microvascular Endothelial Cells (HLMVEC; Lonza) were seeded at 6,000 cells per well in Endothelial Cell Growth Basal Medium-2 (Lonza) supplemented with Fetal Bovine Serum (FBS; Lonza), human EGF (Lonza), human VEGF (Lonza), R3-Insulin-like Growth Factor-1 (Lonza), ascorbic acid (Lonza), hydrocortisone (Lonza), human FGF-beta (Lonza), and gentamicin/amphotericin-b (Lonza) in a 96-well plate (Thermo Fisher). The cells were incubated for 45 minutes at room temperature, then incubated overnight at 37° C./5% CO2.
Following overnight incubation, cell were washed once with 150 μL of Dulbecco's phosphate buffered saline (DPBS; Gibco), and then treated with Endothelial Basal Medium MCB-131 (amino acid, glucose, sodium pyruvate, and phenol red free; US Biologicals) containing a defined custom amino acid concentration based on physiological concentrations in blood of patients with SCD (thus recapitulating observed metabolic imbalances such as the depletion of certain essential amino acids including arginine and aspartate and enrichment of certain non-essential amino acids including glutamate and asparagine), dialyzed FBS (Hyclone), human EGF (Lonza), human VEGF (Lonza), R3-Insulin-like Growth Factor-1 (Lonza), ascorbic acid (Lonza), hydrocortisone (Lonza), human FGF-beta (Lonza), and gentamicin/amphotericin-b (Lonza), glucose, 10 mM HEPES, sodium pyruvate, and sodium bicarbonate supplemented with one of the following: • a. PBS (vehicle control), • b. 0.5 ng/mL Tumor Necrosis Factor alpha (TNFα) and PBS, or; • c. 0.5 ng/mL TNFα and amino acid treatments at 20× mean physiological concentrations in plasma based on values published in the Human Metabolome Database (HMDB) in PBS.
After 24 hours of treatment, cells were washed once with 150 μL of DPBS (Gibco), then fixed with 4% paraformaldehyde. […]
as §4

CC(=O)N[C@@H](CS)C(=O)O [N-Acetyl Cysteine, N-acetylcysteine]
ROS measured in whole blood [1]: reduced ROS
ROS measured in whole blood [2]: reduced ROS
TNF-α induced ICAM-1 expression levels in HLMVEC [3]: reduced levels of ICAM-1 expression to a lesser extent
VCAM-1 expression in HLMVEC [4]: greatly reduced
